Laboratory results published in the NIST ThermoML archive (doi:10.1021/je049671t).

Experiment: xn = mol fraction of the nth substance listed
Settings: Liquid, Vibrating tube method

CCCC [butane] + CCC
Settings	mass density [kg/m3]
239.04 K, 463.7 kPa, x2 = 0.25	622.82
239.04 K, 943.7 kPa, x2 = 0.25	623.31
239.04 K, 1507.7 kPa, x2 = 0.25	623.9
239.04 K, 1962.4 kPa, x2 = 0.25	624.35
239.04 K, 2486.4 kPa, x2 = 0.25	624.89
239.04 K, 3058.3 kPa, x2 = 0.25	625.46
239.04 K, 3473.7 kPa, x2 = 0.25	625.88
239.04 K, 3994 kPa, x2 = 0.25	626.39
239.04 K, 4514.6 kPa, x2 = 0.25	626.9
239.04 K, 4950 kPa, x2 = 0.25	627.33
239.04 K, 5524.3 kPa, x2 = 0.25	627.9
239.04 K, 6029.4 kPa, x2 = 0.25	628.39
239.04 K, 6518 kPa, x2 = 0.25	628.86
239.04 K, 6930.6 kPa, x2 = 0.25	629.26
240 K, 478.5 kPa, x2 = 0.5	606.78
240 K, 514.9 kPa, x2 = 0.75	589.83
240 K, 996.7 kPa, x2 = 0.5	607.38
240 K, 1006.3 kPa, x2 = 0.75	590.44
240 K, 1479 kPa, x2 = 0.5	607.88
240 K, 1505.4 kPa, x2 = 0.75	591.03
240 K, 1962.4 kPa, x2 = 0.5	608.42
240 K, 2024.2 kPa, x2 = 0.75	591.63
240 K, 2491.6 kPa, x2 = 0.5	609
240 K, 2519.5 kPa, x2 = 0.75	592.21
240 K, 2956 kPa, x2 = 0.5	609.51
240 K, 3022.7 kPa, x2 = 0.75	592.8
240 K, 3501.4 kPa, x2 = 0.5	610.09
240 K, 3519.4 kPa, x2 = 0.75	593.39
240 K, 3952.5 kPa, x2 = 0.5	610.58
240 K, 4031.2 kPa, x2 = 0.75	593.97
240 K, 4493.1 kPa, x2 = 0.5	611.14
240 K, 4526.8 kPa, x2 = 0.75	594.51
240 K, 4946.9 kPa, x2 = 0.75	594.99
240 K, 4972.1 kPa, x2 = 0.5	611.66
240 K, 5472.1 kPa, x2 = 0.5	612.19
240 K, 5521.6 kPa, x2 = 0.75	595.64
240 K, 6000.1 kPa, x2 = 0.5	612.74
240 K, 6044.8 kPa, x2 = 0.75	596.2
240 K, 6502.7 kPa, x2 = 0.5	613.25
240 K, 6539.6 kPa, x2 = 0.75	596.77
240 K, 6973.1 kPa, x2 = 0.5	613.74
240 K, 7045.6 kPa, x2 = 0.75	597.3
260 K, 489.6 kPa, x2 = 0.75	566.44
260 K, 495.8 kPa, x2 = 0.5	585.02
260 K, 524.1 kPa, x2 = 0.25	600.69
260 K, 996.9 kPa, x2 = 0.75	567.21
260 K, 1001.1 kPa, x2 = 0.5	585.74
260 K, 1004.9 kPa, x2 = 0.25	601.3
260 K, 1482.5 kPa, x2 = 0.25	601.91
260 K, 1504.2 kPa, x2 = 0.75	567.97
260 K, 1506.4 kPa, x2 = 0.5	586.42
260 K, 1989.9 kPa, x2 = 0.25	602.54
260 K, 2003.6 kPa, x2 = 0.75	568.71
260 K, 2004.6 kPa, x2 = 0.5	587.1
260 K, 2508.4 kPa, x2 = 0.75	569.45
260 K, 2517.2 kPa, x2 = 0.5	587.78
260 K, 2521.3 kPa, x2 = 0.25	603.2
260 K, 3004 kPa, x2 = 0.25	603.79
260 K, 3014.9 kPa, x2 = 0.5	588.45
260 K, 3015.6 kPa, x2 = 0.75	570.19
260 K, 3449.6 kPa, x2 = 0.25	604.34
260 K, 3495.5 kPa, x2 = 0.75	570.88
260 K, 3506 kPa, x2 = 0.5	589.1
260 K, 4004.5 kPa, x2 = 0.5	589.73
260 K, 4006.2 kPa, x2 = 0.75	571.62
260 K, 4007 kPa, x2 = 0.25	605.01
260 K, 4494.5 kPa, x2 = 0.75	572.27
260 K, 4511.7 kPa, x2 = 0.25	605.63
260 K, 4525.9 kPa, x2 = 0.5	590.39
260 K, 5017.4 kPa, x2 = 0.5	591.03
260 K, 5017.7 kPa, x2 = 0.25	606.24
260 K, 5022.8 kPa, x2 = 0.75	573.01
260 K, 5508.1 kPa, x2 = 0.75	573.69
260 K, 5512.4 kPa, x2 = 0.25	606.82
260 K, 5513.7 kPa, x2 = 0.5	591.66
260 K, 6015.4 kPa, x2 = 0.5	592.29
260 K, 6034.1 kPa, x2 = 0.25	607.43
260 K, 6049.2 kPa, x2 = 0.75	574.41
260 K, 6498.8 kPa, x2 = 0.75	575.04
260 K, 6503.8 kPa, x2 = 0.25	607.98
260 K, 6512.1 kPa, x2 = 0.5	592.9
260 K, 6943 kPa, x2 = 0.75	575.6
260 K, 6986.6 kPa, x2 = 0.5	593.49
260 K, 7011.2 kPa, x2 = 0.25	608.56
280 K, 524.1 kPa, x2 = 0.25	578.3
280 K, 533.2 kPa, x2 = 0.5	561.24
280 K, 994.1 kPa, x2 = 0.25	579.05
280 K, 996.1 kPa, x2 = 0.5	562.05
280 K, 1496.7 kPa, x2 = 0.25	579.83
280 K, 1503.2 kPa, x2 = 0.5	562.93
280 K, 1506.3 kPa, x2 = 0.75	543.19
280 K, 2004.1 kPa, x2 = 0.5	563.79
280 K, 2012.9 kPa, x2 = 0.75	544.18
280 K, 2015.5 kPa, x2 = 0.25	580.63
280 K, 2501.9 kPa, x2 = 0.5	564.62
280 K, 2503.9 kPa, x2 = 0.25	581.38
280 K, 2509.6 kPa, x2 = 0.75	545.11
280 K, 3000.3 kPa, x2 = 0.25	582.13
280 K, 3006.4 kPa, x2 = 0.5	565.46
280 K, 3018.4 kPa, x2 = 0.75	546.06
280 K, 3502.3 kPa, x2 = 0.25	582.88
280 K, 3504.2 kPa, x2 = 0.5	566.28
280 K, 3513.7 kPa, x2 = 0.75	546.96
280 K, 4015 kPa, x2 = 0.25	583.63
280 K, 4015 kPa, x2 = 0.75	547.86
280 K, 4016.7 kPa, x2 = 0.5	567.11
280 K, 4505.3 kPa, x2 = 0.25	584.35
280 K, 4508.2 kPa, x2 = 0.75	548.75
280 K, 4524.6 kPa, x2 = 0.5	567.93
280 K, 4984.9 kPa, x2 = 0.75	549.59
280 K, 4998.7 kPa, x2 = 0.5	568.69
280 K, 5019.7 kPa, x2 = 0.25	585.09
280 K, 5502.7 kPa, x2 = 0.25	585.78
280 K, 5506.3 kPa, x2 = 0.5	569.47
280 K, 5508.8 kPa, x2 = 0.75	550.5
280 K, 6005.9 kPa, x2 = 0.25	586.49
280 K, 6009.4 kPa, x2 = 0.5	570.25
280 K, 6043.7 kPa, x2 = 0.75	551.39
280 K, 6507.4 kPa, x2 = 0.5	571.01
280 K, 6517.1 kPa, x2 = 0.25	587.21
280 K, 6530.4 kPa, x2 = 0.75	552.22
280 K, 6972.3 kPa, x2 = 0.5	571.72
280 K, 7009.3 kPa, x2 = 0.25	587.89
280 K, 7012.2 kPa, x2 = 0.75	553.04
300 K, 990 kPa, x2 = 0.5	536.26
300 K, 1002.3 kPa, x2 = 0.75	514.75
300 K, 1005.5 kPa, x2 = 0.25	555.26
300 K, 1504.4 kPa, x2 = 0.25	556.28
300 K, 1504.7 kPa, x2 = 0.75	516.09
300 K, 1541.4 kPa, x2 = 0.5	537.52
300 K, 1950.9 kPa, x2 = 0.5	538.44
300 K, 1972.1 kPa, x2 = 0.75	517.33
300 K, 2002.5 kPa, x2 = 0.25	557.25
300 K, 2461.4 kPa, x2 = 0.5	539.56
300 K, 2497.9 kPa, x2 = 0.25	558.21
300 K, 2507.7 kPa, x2 = 0.75	518.69
300 K, 2946.2 kPa, x2 = 0.5	540.6
300 K, 3009.2 kPa, x2 = 0.75	519.95
300 K, 3012.5 kPa, x2 = 0.25	559.2
300 K, 3505.6 kPa, x2 = 0.5	541.79
300 K, 3507.9 kPa, x2 = 0.25	560.13
300 K, 3511.5 kPa, x2 = 0.75	521.18
300 K, 3998.7 kPa, x2 = 0.25	561.02
300 K, 4015.9 kPa, x2 = 0.5	542.85
300 K, 4017.5 kPa, x2 = 0.75	522.39
300 K, 4511.3 kPa, x2 = 0.25	561.97

mass density [kg/m3]
Settings	240 K	260 K	280 K
x2 = 0.25	–	600.21	577.86
x2 = 0.5	606.37	584.58	560.91
x2 = 0.75	589.36	566.05	541.14
